According to US4120892A, “Anionic naphthalene thioureido naphthalene sulfonic acids” (American Cyanamid Company, priority 1977, dated 1978):
Structures can show the parent of a compound that is named as a salt. Where two headings read alike, the source gives them in different places.

Columns and labels:
complement system = settings: reported in the literature; cited from earlier work
[1] = reported in The New England Journal of Medicine, 286, 808-812 (1972); cited from earlier work
human C1 = assay: Test, Code 026 (C1 inhibitor); format: biochemical; settings: activity in wells, two-fold serial dilution assay; higher well number indicates higher activity
From the text: (§1) An active inhibitor protects C2 from C1 and C4; (ii) Test, Code 035 (C3-C9 inhibitor -- This test determines the ability of the late components of human complement (C3-C9) to lyse EAC 142 in the presence of appropriate dilutions of the test compound. An active inhibitor protects EAC 142 from lysis by human C3-C9; (iii) Test, Code 036 (C-Shunt inhibitor) -- In this test human erythrocytes rendered fragile are lysed in autologous serum via the shunt pathway activated by cobra venom factor in the presence of appropriate dilutions of the test compound. Inhibition of the shunt pathway results in failure of lysis; (iv) Forssman Vasculitis Test -- Here, the well known complement dependent lesion, Forssman vasculitis, is produced in guinea pigs by intradermal injection of rabbit anti-Forssman antiserum. […]
(§2) With reference to Table I, guinea pigs weighing about 300 g were dosed intravenously (i.v.) or intraperitoneally (i.p.) with 200 mg/kg of the test compound dissolved in saline and adjusted to pH 7-8. […] Percent inhibition was calculated by comparison with simultaneous controls. […]

[2] = system: late components of human complement (C3-C9); assay: Test, Code 035 (C3-C9 inhibitor; C-Late); format: cell-based; settings: activity in wells, two-fold serial dilution assay; higher well number indicates higher activity
From the text: as §1, §2

shunt pathway = assay: Test, Code 036 (C-Shunt inhibitor); format: cell-based, human; settings: activity in wells, two-fold serial dilution assay; higher well number indicates higher activity
From the text: as §1, §2

whole complement = assay: In vivo complement inhibition in guinea pigs (serum whole complement, capillary tube assay); settings: Cavia porcellus, ip, guinea pig, intraperitoneal
From the text: An active inhibitor protects C2 from C1 and C4; (ii) Test, Code 035 (C3-C9 inhibitor -- This test determines the ability of the late components of human complement (C3-C9) to lyse EAC 142 in the presence of appropriate dilutions of the test compound. An active inhibitor protects EAC 142 from lysis by human C3-C9; (iii) Test, Code 036 (C-Shunt inhibitor) -- In this test human erythrocytes rendered fragile are lysed in autologous serum via the shunt pathway activated by cobra venom factor in the presence of appropriate dilutions of the test compound. Inhibition of the shunt pathway results in failure of lysis; (iv) Forssman Vasculitis Test -- Here, the well known complement dependent lesion, Forssman vasculitis, is produced in guinea pigs by intradermal injection of rabbit anti-Forssman antiserum. The lesion is measured in terms of diameter, edema and hemorrhage and the extent to which a combined index of these is inhibited by prior intraperitoneal injection of the test compound at 200 mg/kg is then reported, unless otherwise stated; (v) Forssman Shock Test -- Lethal shock is produced in guinea pigs by an i.v. injection of anti-Forssman antiserum and the harmonic mean death time of treated guinea pigs is compared with that of simultaneous controls; (vi) Complement Level Reduction Test -- In this test, the above dosed guinea pigs, or others, are bled for serum and the complement level is determined in undiluted serum by the capillary tube method of U.S. Pat. No. 3,876,376 and compared to undosed control guinea pigs; and (vii) Cap 50 Test -- Here, appropriate amounts of the test compound are added to a pool of guinea pig serum in vitro, after which the undiluted serum capillary tube assay referred to above is run. The concentration of compound inhibiting 50% is reported.
as §2

Molecule	anticomplementary effect / complement inhibition (complement system)	treatment of hereditary angioneurotic edema [1]	also measured
8-(3-benzamido-4-methylbenzamido)naphthalene-1,3,5-trisulfonic acid [Suramin]	competitive inhibitor of the complement system	used with success in the treatment of hereditary angioneurotic edema	–
NC[C@H]1CC[C@H](C(=O)O)CC1 [tranexamic acid]	–	used with success in the treatment of hereditary angioneurotic edema	–
Nc1ccc2cc(S(=O)(=O)O)cc(O)c2c1N=Nc1ccc(NC(=O)Nc2ccc(N=Nc3c(N)ccc4cc(S(=O)(=O)O)cc(O)c34)c(S(=O)(=O)O)c2)cc1S(=O)(=O)O [chlorazol fast pink, 3,3'-ureylenebis-[6-(2-amino-8-hydroxy-6-sulfo-1-naphthylazo)]benzenesulfonic acid, tetrasodium salt]	anticomplementary effect	–	–
heparin	anticomplementary effect	–	–
NCCCCCC(=O)O [epsilon-aminocaproic acid]	–	used with success in the treatment of hereditary angioneurotic edema	–
O=S(=O)(O)c1cc(NC(=S)Nc2cc(S(=O)(=O)O)c3cc(NC(=S)Nc4cc(S(=O)(=O)O)cc5cc(S(=O)(=O)O)cc(S(=O)(=O)O)c45)cc(S(=O)(=O)O)c3c2)c2c(S(=O)(=O)O)cc(S(=O)(=O)O)cc2c1 [8,8'-[4,8-Disulfo-2,6-naphthylenebis(2-thioureylene)]-di-1,3,6-naphthalenetrisulfonic acid octasodium salt]	–	–	Cl 026 Wells (human C1): +5 Wells; C-Late 035 Wells [2]: +2 Wells; Shunt Inhibition 036 Wells (shunt pathway): +2 Wells; inhibition at 200 mg/kg (whole complement; 0.5 h, 30 minutes, read-out: In Vivo Activity (Guinea Pig) % Inhibition, Intraperitoneal, 30 minutes): -86%; inhibition at 200 mg/kg (whole complement; 1 h, 60 minutes, read-out: In Vivo Activity (Guinea Pig) % Inhibition, Intraperitoneal, 60 minutes): -84%; inhibition at 200 mg/kg (whole complement; 2 h, 120 minutes, read-out: In Vivo Activity (Guinea Pig) % Inhibition, Intraperitoneal, 120 minutes): -93%
